In patent US10584124B2, “Crystalline forms” (Array BioPharma Inc., priority 2017, dated 2020):

Assay: Primary salt screen of the compound of Formula II: XRPD post-cycling and post-stability (40° C., 75% RH overnight)
Assay type: physicochemical
Conditions: compound of Formula II + the acid given as label; for XRPD post-cycling: cycled RT/40° C. over 24 hours; for XRPD post-stability: 40° C. and 75% RH overnight
Method: The salt screen was performed as follows. […] In cases where stock solutions could not be attained, the acid was added neat to the solution of the compound of Formula II.
The samples were then temperature cycled between ambient (RT) and 40° C. in 4-hour cycles over 24 hours. Each mixture was filtered and isolated solids were analyzed (wet) by XRPD to determine crystallinity and form. Samples in which solid was not observed were stored uncapped to allow solvent evaporation. The remaining samples were placed in an oven at 40° C. and 75% RH overnight. The samples were then reanalyzed by XRPD to determine any changes in form or crystallinity. The observations and results, including the different diffractogram patterns observed during the screen, are shown in Tables 29-53, below, and FIGS. 24A-24B through 47A-47B.

| Structure (SMILES) | XRPD post-cycling (IPA/water (10%)) | XRPD post-cycling (THF/water (1%)) | XRPD post-stability (from Acetone/water (10%)) | XRPD post-stability (from IPA/water (10%)) | XRPD post-stability (from MeCN/water (20%)) | XRPD post-stability (from THF/water (1%)) | XRPD post-cycling (EtOH/water (10%)) | XRPD post-stability (from EtOH/water (10%)) | XRPD post-cycling (Acetone/water (10%)) | XRPD post-cycling (Dioxane/water (10%)) | XRPD post-cycling (MeCN/water (20%)) | XRPD post-stability (from Dioxane/water (10%)) |
| --- | --- | --- | --- | --- | --- | --- | --- | --- | --- | --- | --- | --- |
| CS(=O)(=O)O [Methane sulfonic acid] | Form 2 | No solid | Amorphous | Form 2 | No solid | No solid | Amorphous | Amorphous | Amorphous | No solid | No solid | No solid |
| O=S(=O)(O)c1ccc2ccccc2c1 [Naphthalene-2-sulfonic acid] |  | Form 5 |  |  |  |  | Form 2 | Form 2 |  |  |  |  |
| O=P(O)(O)O [Phosphoric acid] | Form 10 | Amorphous |  | Form 10 | No solid | Form 10 |  | Form 10 | Form 9 | No solid | No solid | No solid |
| O=S(=O)(O)O [Sulfuric acid] | Form 3 | No solid | No solid | Form 5 | No solid | No solid | No solid | No solid | No solid | No solid | No solid | No solid |
| Cc1ccc(S(=O)(=O)O)cc1 [p-Toluene sulfonic acid] | Amorphous |  | Form 4 | Form 4 | No solid | Form 4 | Amorphous | Amorphous | Form 4 | No solid | No solid | No solid |

Further lines, with some results ahead:

| XRPD post-cycling (IPA/water (10%)) | XRPD post-cycling (THF/water (1%)) | XRPD post-stability (from Acetone/water (10%)) | XRPD post-stability (from IPA/water (10%)) | XRPD post-stability (from MeCN/water (20%)) | XRPD post-stability (from THF/water (1%)) | XRPD post-cycling (EtOH/water (10%)) | XRPD post-stability (from EtOH/water (10%)) | Structure (SMILES) | XRPD post-cycling (Acetone/water (10%)) | XRPD post-cycling (Dioxane/water (10%)) | XRPD post-cycling (MeCN/water (20%)) | XRPD post-stability (from Dioxane/water (10%)) |
| --- | --- | --- | --- | --- | --- | --- | --- | --- | --- | --- | --- | --- |
| Form 8 | Form 8 | Form 14 | Form 8 | Form 8 | Form 8 |  |  | N[C@@H](CC(=O)O)C(=O)O [L-Aspartic acid] |  |  |  |  |
| Amorphous |  | Amorphous | Amorphous | No solid | Form 15 | Amorphous | Amorphous | O=C(O)/C=C\C(=O)O [Maleic acid] | Amorphous | No solid | No solid | No solid |
| Amorphous | No solid |  | Form 6 | No solid | No solid | Amorphous | Form 6 | O=C(O)C(=O)O [Oxalic acid] | Amorphous | Form 6 | No solid | Form 6 |
